A short description of data set [1]: Metabolic stability in mouse liver S9 fractions. The data set is classed as in vitro ADME. Particulars: presence of the cofactor mixture (NADPH, UDPGA, PAPS, GSH), 37 °C, 60 min. The protocol: Working solutions of the test compounds (baicalein, 7-EC, and compounds 1–7) prepared in 50 vol% aqueous MeOH at 120 μM were added in triplicate to a 200 mM tris buffer (pH 7.4) containing mouse liver S9 fractions (1 mg protein/mL), alamethicin (25 μg/mL) and MgCl2 (2 mM). The final concentration of test compound was 3 μM. This mixture was pre-incubated at 37 °C in a shaking water bath for 5 min followed by addition of a cofactor mixture to following final concentrations: 1 mM NADPH, 0.5 mM UDPGA, 0.1 mM PAPS and 2.5 mM GSH. A 50 μL aliquot was taken at 0, 15, 30 and 60 min from each incubation mixture. These samples were then treated in the same way as described above in Mouse plasma stability assay. The supernatant was analyzed by Agilent 6530 Q−TOF LC−MS/MS system in a positive auto MS/MS scan mode. The liquid chromatography was conducted in the same condition as described above in mouse plasma stability assay. The analytical data were analyzed using Agilent MassHunter Quantitative Analysis Software (version B.05.00). MS chromatograms were extracted using calculated exact masses ([M+H]^+) for the analytes. Peak area ratios of the analytes vs. IS on the extracted MS chromatograms were used to calculate % remaining values at each time points.

Data set [2] in a line: Chemical stability in physiologically-relevant solutions. The data set is classed as physicochemical. The settings on record: 37 °C; for remaining at 4 h, 10 μM: at 4 h vs time 0. Here is the method:
Stock solutions of the test compounds (baicalein, compounds 1–7) prepared in MeOH at 10 mM were diluted in 0.1 N HCl and 0.1 M potassium phosphate buffer (pH 6.5 and 7.4) in triplicate to a final concentration of 10 μM. The mixtures were then incubated at 37 °C in a shaking water bath. Samples taken at 0, 1, 2, 3 and 4 h were analyzed by Thermo UltiMate 3000 series HPLC system. Chromatographic separation was performed on an Agilent Eclipse Plus C18 column (100 × 4.6 mm, 3.5 µm) kept at 40 °C with isocratic elution at a flow rate of 0.6 mL/min using a mixture of 0.1 vol% TFA in deionized water and acetonitrile as the mobile phase. The detection wavelengths were 277 and 270 nm for baicalein and compounds 1–7, respectively. Peak areas of the analytes on the UV chromatograms were used to calculate % remaining values at each time points.
The stability of baicalein and of the synthesized carbamate prodrugs (1–7) was determined in solutions mimicking gastric (0.1 N HCl, pH ~ 1), intestinal (pH 6.5 phosphate buffer), and physiological (pH 7.4 phosphate buffer) conditions. […]. […] […]. The degradation of the carbamate prodrugs was accompanied by the formation of baicalein under all conditions in this study (data not shown). Although the exact reason for this pH-dependent stability remains unknown, it is plausible that the side chains of amino acids somehow affect the hydrolysis of the carbamate bond of the prodrugs.

Data set [3] is described as follows: logD7.4 by shake-flask method. It is filed as physicochemical. Particulars: 0.1 M phosphate buffer (pH 7.4), duplicate. The protocol: The assay was conducted as reported previously. Briefly, 100 µM test solutions were prepared by diluting 10 mM stock solutions of the test compounds (baicalein and compounds 1–7) in 0.1 M potassium phosphate buffer (pH 7.4) saturated with 1-octanol. Standard solutions were prepared by diluting each test solution with the same volume of DMSO in HPLC vials. Partition solutions were prepared by mixing each test solution and 1-octanol saturated with 0.1 M potassium phosphate buffer (pH 7.4) at three different volume ratios, namely 1:0.02, 1:0.2 and 1:2, in HPLC vials. The partition solutions were then vortexed for 1 h at 1500 rpm at rt. The standard solutions and the aqueous phase (bottom layer) of each partition solution were analyzed directly from the HPLC vials as described above in Chemical stability assay. The logD7.4 values were calculated by the following equation: logD7.4=log(2×As/Ap−1)·Vt/Vo where As and Ap are, respectively, the peak areas of the standard and the aqueous phase of the partition solutions and Vt and Vo the volumes of test solution and 1-octanol of the partition solutions.

A short description of data set [4]: Kinetic solubility in phosphate buffer (pH 7.4). It is filed as physicochemical. Particulars: aqueous buffer, kinetic from dmso stock; shake-flask, 0.1 M phosphate buffer (pH 7.4), triplicate. Here is the method: Stock solutions of the test compounds (baicalein and compounds 1–7) prepared at 10 mM in DMSO were diluted with 0.1 M potassium phosphate buffer (pH 7.4) in Mini-UniPrep filter vial (PTFE membrane, 0.45 μm) to a final concentration of 500 µM. The mixture was then shaken at 800 rpm for 90 min at rt and filtered by slowly pressing the upper tube of the Mini-Uniprep vial. The filtrate (300 µL) was then transferred to an HPLC vial containing same volume of acetonitrile. Sample analysis was conducted as described above in Chemical stability assay.

A short description of another data set: Mouse pharmacokinetics. Particulars: for AUC(0-t) / Cmax / Tmax / AUC(0-inf) / half-life: male, ICR, mouse. The data set is classed as in vivo, male ICR mice. Here is the method: Pharmacokinetic studies were conducted with male ICR mice (8 weeks old; 30–35 g body wt.) purchased from Koatech Company (Pyeongtaek, Korea), as reported previously. Intravenous dosing solutions were prepared in EtOH/20% aqueous HPβCD (10/90 vol%) at 2 and 3 mg/mL for baicalein and compound 2, respectively. Oral dosing solutions were prepared in EtOH/tween 80/20% aqueous HPβCD (10/10/80 vol%) at 1 and 1.5 mg/mL for baicalein and compound 2, respectively. Plasma sample analysis was performed as described above in mouse plasma stability assay.

Data set [5] in a line: Stability in mouse plasma. The data set is classed as in vitro ADME. Here is the method:
Working solutions of the test compounds (baicalein, enalapril, and compounds 1–7) prepared in 50 vol% aqueous MeOH at 40 μM were diluted in mouse plasma in triplicate to a final concentration of 1 μM. The mixtures were then incubated at 37 °C in a shaking water bath. A 50 μL aliquot was removed at 0 and 60 min from each incubation mixture followed by immediate mixing with 150 μL ice-cold MeOH containing 1 μg/mL glipizide as the internal standard (IS). The resulting mixtures, following a 5-min vortexing and sonication, were then centrifuged at 3000 rpm for 30 min at 4 °C. The supernatant was analyzed by Agilent 6460 QQQ LC−MS/MS system in a positive multiple reaction monitoring (MRM) mode. Gradient elution was conducted on an Agilent Eclipse Plus C18 column (100 × 2.1 mm, 3.5 µm) at 40 °C with 0.1 vol% formic acid in deionized water and 0.1 vol% formic acid in acetonitrile running at 0.45 mL/min. MRM transitions of the analytes were set as follows: baicalein: m/z 271→123, enalapril: m/z 377→234, 1: m/z 428→271, 2: m/z 414→271, 3: m/z 428→271, 4: m/z 416→271, 5: m/z 462→271, 6: m/z 386→271, 7: m/z 372→271, and glipizide: m/z 446→321. The analytical data were analyzed using Agilent MassHunter Quantitative Analysis Software (version B.05.00). Peak area ratios of the analytes vs. IS on the MRM chromatograms were used to calculate % remaining at 60 min.

A short description of another data set: in vitro. The settings on record: PAMPA. A general note: In PAMPA a lipid-coated filter parts donor from acceptor wells.
Setting [6] is: iv, plasma analyte after single i.v. dose of baicalein 10 mg/kg, mice.
[7] abbreviates: iv, plasma analyte after single i.v. dose of compound 2 15 mg/kg, mice.
Setting [8] is: po, plasma analyte after single p.o. dose of compound 2 50 mg/kg, mice.

By half-life is commonly meant the time needed for the level to fall by half in the phase considered. Low readings indicate rapid decline, high ones slow decline. A word on the logD: it is the decadic logarithm of the distribution of all forms, ionised or not, between an organic phase and buffer at a given pH. The solubility (kinetic) is solubility judged after dilution from a stock solution rather than from solid. What is called AUC(0-t) is the area under the concentration-time curve up to a stated or last time point. Usually Cmax stands for the maximum level reached in the sampled fluid or tissue. By Tmax is commonly meant the time at which the peak concentration occurs. Usually AUC(0-inf) stands for total exposure, with the tail of the curve extrapolated. Lower therefore signals less exposure. Broadly, the Papp is a coefficient for how fast a substance crosses the barrier. Read a high Papp as fast passage.

≈ marks a conversion by molar mass, not a printed value.

Method for in vitro: The assay was conducted as reported previously [15]. The samples were analyzed as described below in mouse plasma stability assay.

`O=C(N[C@@H](Cc1ccccc1)C(=O)O)Oc1cc2oc(-c3ccccc3)cc(=O)c2c(O)c1O` [Compound 5, (S)-2-((((5,6-Dihydroxy-4-oxo-2-phenyl-4H-chromen-7-yl)oxy)carbonyl)amino)-3-phenylpropanoic acid]: the “metabolism in mouse liver S9 fractions” value in data set [1] is recorded as “metabolized much faster than the other prodrugs”. In addition, the half-life at 10 μM in data set [2] (buffer, pH 1, 0.1 N HCl, 10 μM) was 2.2 ± 0.4 h; in data set [2] (pH 6.5 buffer (0.1 M potassium phosphate)), greater than 4 h; in data set [2] (pH 7.4 buffer (0.1 M potassium phosphate)), greater than 4 h. Also, the fraction remaining at 4 h, 10 μM was 27.4 ± 5.1% in data set [2] (buffer, pH 1, 0.1 N HCl); 78.5 ± 1.5% in data set [2] (pH 6.5 buffer); 70.2 ± 2.5% in data set [2] (pH 7.4 buffer). The same compound had a pH-dependent lipophilicity (logD) in data set [3] of 0.43. This compound also yielded a solubility (kinetic) at 90 min in data set [4] of 375 ± 21.4 µM (≈ 173 µg/mL).
Regarding `O=c1cc(-c2ccccc2)oc2cc(O)c(O)c(O)c12` [Baicalein, 5,6,7-trihydroxy-2-phenyl-4H-1-benzopyran-4-one], in data set [1], the “metabolism in mouse liver S9 fractions” value is on record as “rapidly metabolized”. Also, the “time plasma analyte was above the quantitation limit” value in the data set “Mouse pharmacokinetics” (after i.v. dose of compound 2 (approximately equimolar to 10 mg/kg baicalein), mice) is listed as 8 h; in “Mouse pharmacokinetics” (after p.o. administration of compound 2, mice), 8 h; in “Mouse pharmacokinetics” (after single i.v. dose of 10 mg/kg baicalein, mice), “up to 15 min”; in “Mouse pharmacokinetics” (after single p.o. dose of 10 mg/kg baicalein, mice, 24 h time course) it was “below the quantitation limit”. Moreover, the AUC(0-t) in “Mouse pharmacokinetics” (setting [6]) came to 1090 ± 640 ng·h/mL; in the data set “Mouse pharmacokinetics” (setting [7]), 4240 ± 1430 ng·h/mL; in “Mouse pharmacokinetics” (setting [8]), 450 ± 140 ng·h/mL. Moreover, the figures for the highest concentration (Cmax) in “Mouse pharmacokinetics” (setting [6]), in the data set “Mouse pharmacokinetics” (setting [7]) and in the data set “Mouse pharmacokinetics” (setting [8]) were 1470 ± 330 ng/mL, 4190 ± 450 ng/mL and 230 ± 90 ng/mL, respectively. Moreover, the time of peak concentration (Tmax) in the data set “Mouse pharmacokinetics” (setting [6]) came out at 0.1 h; in “Mouse pharmacokinetics” (setting [7]), 0.1 h; in “Mouse pharmacokinetics” (setting [8]), 0.3 ± 0.09 h. For the same compound, the figures for the AUC(0-inf) in the data set “Mouse pharmacokinetics” (setting [7]) and in “Mouse pharmacokinetics” (setting [8]) were 4390 ± 1570 ng·h/mL and 540 ± 150 ng·h/mL, respectively. For the same compound, the half-life in the data set “Mouse pharmacokinetics” (setting [7]) was 1.5 ± 0.3 h; in “Mouse pharmacokinetics” (setting [8]), 2.6 ± 1.5 h. In addition, the amount remaining at 1 h, 1 μM in data set [5] (mouse, plasma) was greater than 85%. Moreover, the half-life at 10 μM was greater than 4 h in data set [2] (0.1 M potassium phosphate buffer, pH 6.5 buffer (0.1 M potassium phosphate)); greater than 4 h in data set [2] (0.1 M potassium phosphate buffer, pH 7.4 buffer (0.1 M potassium phosphate)); greater than 4 h in data set [2] (pH 1, 0.1 N HCl, 10 μM). The fraction remaining at 4 h, 10 μM in data set [2] (0.1 M potassium phosphate buffer, pH 6.5 buffer) is 101 ± 2.8%; in data set [2] (0.1 M potassium phosphate buffer, pH 7.4 buffer), 65.8 ± 2.6%; in data set [2] (pH 1, 0.1 N HCl), 104 ± 4.1%. In “in vitro”, this compound returned a Papp of 5.75 ± 0.14 ×10⁻⁶ cm/s. For the same compound, the pH-dependent lipophilicity (logD) in data set [3] (1-octanol / 0.1 M potassium phosphate buffer) amounted to 2.14.
Turning to `CCOc1ccc2ccc(=O)oc2c1` [7-Ethoxycoumarin], the “metabolism in mouse liver S9 fractions” value in data set [1] was “rapid metabolism”.
`CCOC(=O)[C@H](CCc1ccccc1)N[C@@H](C)C(=O)N1CCC[C@H]1C(=O)O` [Enalapril, enalapril]: the “% remaining in mouse plasma” value in data set [5] (60 min incubation at 37 °C, 1 μM) is “degraded”.
